Measured values reported in patent US20250171418A1, “PARP1 INHIBITORS AND USES THEREOF” (XinThera, Inc., priority 2022, published 2025).

Tests used:
MDR1 = target: T1, MDR1 (Homo sapiens, UniProt P08183); assay: In vitro human transporter efflux, MDCKII cells expressing MDR1; assay type: in vitro ADME; details: for efflux ratio at 2 h, 10 μM: MDCK-MDR1, pH 7.4, Efflux ratio=Papp(B→A)/Papp(A→B); for Papp A→B at 2 h, 10 μM: MDCK-MDR1, pH 7.4, read-out: MDCK-MDR1 Papp AB; for Papp B→A at 2 h, 10 μM: MDCK-MDR1, pH 7.4, read-out: MDCK-MDR1 Papp BA
T1 construct: expressed in transfected cells; host or cells: MDCKII (Madin-Darby canine kidney) cells
T1 sequence (P08183 whole entry): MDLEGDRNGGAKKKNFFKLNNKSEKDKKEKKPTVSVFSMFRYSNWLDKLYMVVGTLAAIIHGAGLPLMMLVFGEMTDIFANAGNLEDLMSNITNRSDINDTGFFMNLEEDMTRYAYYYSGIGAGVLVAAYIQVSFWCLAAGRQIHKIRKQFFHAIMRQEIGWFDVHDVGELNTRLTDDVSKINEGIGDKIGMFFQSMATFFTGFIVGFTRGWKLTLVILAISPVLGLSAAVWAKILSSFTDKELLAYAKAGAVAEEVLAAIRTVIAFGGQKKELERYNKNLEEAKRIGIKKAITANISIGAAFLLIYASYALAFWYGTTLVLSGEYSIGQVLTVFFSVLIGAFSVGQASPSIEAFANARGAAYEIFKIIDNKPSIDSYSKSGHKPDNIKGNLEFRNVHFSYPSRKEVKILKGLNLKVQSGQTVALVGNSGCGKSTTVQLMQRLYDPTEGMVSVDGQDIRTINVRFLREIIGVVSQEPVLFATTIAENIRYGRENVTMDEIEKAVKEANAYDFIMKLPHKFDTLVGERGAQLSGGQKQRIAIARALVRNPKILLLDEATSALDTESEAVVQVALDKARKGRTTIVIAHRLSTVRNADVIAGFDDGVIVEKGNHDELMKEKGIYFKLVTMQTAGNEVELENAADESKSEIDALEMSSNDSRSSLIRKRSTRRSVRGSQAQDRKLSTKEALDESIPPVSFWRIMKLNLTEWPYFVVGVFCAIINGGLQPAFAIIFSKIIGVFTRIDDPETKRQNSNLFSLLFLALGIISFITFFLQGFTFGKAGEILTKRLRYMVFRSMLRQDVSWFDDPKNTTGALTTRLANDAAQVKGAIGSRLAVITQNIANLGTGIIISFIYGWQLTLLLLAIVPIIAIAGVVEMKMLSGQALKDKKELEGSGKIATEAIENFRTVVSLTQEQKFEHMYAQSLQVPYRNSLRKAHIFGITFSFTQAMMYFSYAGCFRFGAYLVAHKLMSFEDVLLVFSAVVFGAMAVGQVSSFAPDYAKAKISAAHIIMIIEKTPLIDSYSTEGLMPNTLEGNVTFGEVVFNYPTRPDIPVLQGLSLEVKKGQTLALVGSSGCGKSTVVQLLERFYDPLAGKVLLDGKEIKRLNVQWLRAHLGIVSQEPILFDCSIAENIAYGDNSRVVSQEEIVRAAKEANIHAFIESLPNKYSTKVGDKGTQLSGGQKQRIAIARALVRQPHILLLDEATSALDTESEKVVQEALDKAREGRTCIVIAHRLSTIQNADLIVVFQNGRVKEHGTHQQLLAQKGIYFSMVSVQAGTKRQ
Protocol: (§1) Madin-Darby canine kidney (MDCKII) cells expressing either MDR1 or BCRP were seeded onto Corning HTS Transwell® 96-well polycarbonate permeable (0.4 μm pore) supports at a density of 545,000 cells/cm2. Cells were incubated for 4-8 days prior to assay, and monolayer integrity was assessed by measuring transepithelial electrical resistance (TEER). […] The final organic solvent concentration was 0.5% (v/v). Bidirectional (apical-to-basolateral and basolateral-to-apical) flux of the test and reference compounds was determined over a 2-hour incubation at 37° C. and […] with a relative humidity of 95%. At the end of the incubation, samples from the apical and basolateral side were taken and then precipitated with acetonitrile containing internal standard. After centrifugation at 3200×g, supernatants were diluted 1:1 (v/v) with water and subjected to analysis via HPLC-MS/MS.
(§2) The apparent permeability (Papp, units of x 10-6 cm/s) was calculated using the following equation: […]
(§3) Where dQ/dt was the rate of drug transport (pmol/s), A was the surface area of the membrane (0.143 cm^2), and DO was the initial donor concentration (nM or pmol/cm3).
(§4) Efflux ratio=Papp(B→A)/Papp(A→B)
(§5) Where Papp(B→A) is the apparent permeability in the basolateral-to-apical direction, and Papp(A→B) is the apparent permeability in the apical-to-basolateral direction.

BCRP = target: T2, BCRP (Homo sapiens, UniProt Q9UNQ0); assay: In vitro human transporter efflux, MDCKII cells expressing BCRP; assay type: in vitro ADME; details: for efflux ratio at 2 h, 10 μM: pH 7.4, Efflux ratio=Papp(B→A)/Papp(A→B); for Papp A→B at 2 h, 10 μM: pH 7.4, read-out: BCRP Papp AB; for Papp B→A at 2 h, 10 μM: pH 7.4, read-out: BCRP Papp BA
T2 construct: expressed in transfected cells; host or cells: MDCKII (Madin-Darby canine kidney) cells
T2 sequence (Q9UNQ0 1-655): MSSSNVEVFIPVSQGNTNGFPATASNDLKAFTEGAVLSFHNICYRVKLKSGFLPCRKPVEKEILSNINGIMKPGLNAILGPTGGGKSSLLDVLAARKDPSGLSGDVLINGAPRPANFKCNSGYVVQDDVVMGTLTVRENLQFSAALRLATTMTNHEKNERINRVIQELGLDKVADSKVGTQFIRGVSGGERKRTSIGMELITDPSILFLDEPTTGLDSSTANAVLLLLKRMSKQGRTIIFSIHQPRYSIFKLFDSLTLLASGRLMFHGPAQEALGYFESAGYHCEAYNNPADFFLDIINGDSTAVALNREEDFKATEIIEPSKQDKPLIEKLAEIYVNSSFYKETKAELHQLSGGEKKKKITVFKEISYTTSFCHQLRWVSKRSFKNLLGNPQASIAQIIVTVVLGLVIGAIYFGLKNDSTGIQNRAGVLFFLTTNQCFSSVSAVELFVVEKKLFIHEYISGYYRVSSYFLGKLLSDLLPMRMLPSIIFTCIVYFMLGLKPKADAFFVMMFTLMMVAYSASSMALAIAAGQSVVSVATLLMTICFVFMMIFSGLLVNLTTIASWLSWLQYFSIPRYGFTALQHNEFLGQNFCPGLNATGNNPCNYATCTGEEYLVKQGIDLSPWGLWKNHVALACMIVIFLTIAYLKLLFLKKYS
Protocol: as §1, §2, §3, §4, §5

[1] = test system: MDA-MB-436 (mutated BRCA1) cell lines; assay: Cell growth inhibition assay (CellTiter-Glo cell viability); assay type: cell-based; details: Homo sapiens, 168 h; MDA-MB-436 cells, 7 days, CellTiter Glo 2.0
Protocol: (§6) Cell proliferation was measured through the cell viability assay using DLD-1 BRCA2(−/−) and parental isogenic pair and MDA-MB-436 (mutated BRCA1) cell lines. The CellTiter-Glo (CTG) based cell viability assay is designed to determine the number of viable cells in the culture because of compound effect, by quantifying ATP, which indicates the presence of metabolically active cells.
(§7) DLD-1 BRCA2(−/−) and parental isogenic pair were cultured in RPMI 1640 supplemented with 10% fetal bovine serum (FBS), and MDA-MB-436 cells were cultured in DMEM supplemented with 10% FBS. Both were cultured at 37° C. with […]. Invention compounds were distributed to the 384 well plate (Corning, 3764) using Echo acoustic liquid handler to form a 1:3 serially diluted final concentration with top dose of 10 or 30 μM.

DLD-1 BRCA2(−/−) = assay: as above; assay type: cell-based; details: Homo sapiens, DLD-1, 168 h, DLD-1 BRCA2(−/−) cells, 7 days, CellTiter Glo 2.0
Protocol: as §6, §7

[2] = In vivo determination of rat Kp,uu; details: brain and plasma, 1 mg/kg, male Sprague-Dawley rats, oral gavage, 0.1 mg/mL at 10 mL/kg, Kp*(fraction unbound in brain homogenate/fraction unbound in plasma)
Protocol: The equilibrium dialysis method was used to investigate the in vitro binding of test articles and reference compounds to plasma proteins. Plasma samples containing 5 μM test article or blank dialysis buffer solution (PBS, pH 7.4) were added to separate chambers of the dialysis wells of the High Throughput equilibrium Dialysis (HTD) device. The dialysis plate was sealed and placed in an incubator at 37° C. with 5% CO2 with shaking at approximately 100 rpm for 6 hours. All experiments were performed in duplicate. Ketoconazole (5 μM) was used as the reference compound. After incubation, the seal was removed, and 50 μL of post-dialysis samples were pipetted from both buffer and plasma chambers into fresh 96well plates. Samples were equimatrilyzed by either addition of blank plasma to buffer samples or the addition of blank buffer to plasma samples. […] The unbound fractions in plasma were calculated using the concentrations of test articles in buffer and plasma samples according to the following equation: […]
The equilibrium dialysis method was used to investigate the in vitro binding of test articles and reference compounds to rodent brain homogenate. […] The unbound fractions in diluted brain homogenate were calculated using the concentrations of test articles in buffer and homogenate samples according to the following equation: […]

PARP1 = PARP1 (Homo sapiens, UniProt P09874); assay: biochemical
Sequence of PARP1 (P09874 whole entry): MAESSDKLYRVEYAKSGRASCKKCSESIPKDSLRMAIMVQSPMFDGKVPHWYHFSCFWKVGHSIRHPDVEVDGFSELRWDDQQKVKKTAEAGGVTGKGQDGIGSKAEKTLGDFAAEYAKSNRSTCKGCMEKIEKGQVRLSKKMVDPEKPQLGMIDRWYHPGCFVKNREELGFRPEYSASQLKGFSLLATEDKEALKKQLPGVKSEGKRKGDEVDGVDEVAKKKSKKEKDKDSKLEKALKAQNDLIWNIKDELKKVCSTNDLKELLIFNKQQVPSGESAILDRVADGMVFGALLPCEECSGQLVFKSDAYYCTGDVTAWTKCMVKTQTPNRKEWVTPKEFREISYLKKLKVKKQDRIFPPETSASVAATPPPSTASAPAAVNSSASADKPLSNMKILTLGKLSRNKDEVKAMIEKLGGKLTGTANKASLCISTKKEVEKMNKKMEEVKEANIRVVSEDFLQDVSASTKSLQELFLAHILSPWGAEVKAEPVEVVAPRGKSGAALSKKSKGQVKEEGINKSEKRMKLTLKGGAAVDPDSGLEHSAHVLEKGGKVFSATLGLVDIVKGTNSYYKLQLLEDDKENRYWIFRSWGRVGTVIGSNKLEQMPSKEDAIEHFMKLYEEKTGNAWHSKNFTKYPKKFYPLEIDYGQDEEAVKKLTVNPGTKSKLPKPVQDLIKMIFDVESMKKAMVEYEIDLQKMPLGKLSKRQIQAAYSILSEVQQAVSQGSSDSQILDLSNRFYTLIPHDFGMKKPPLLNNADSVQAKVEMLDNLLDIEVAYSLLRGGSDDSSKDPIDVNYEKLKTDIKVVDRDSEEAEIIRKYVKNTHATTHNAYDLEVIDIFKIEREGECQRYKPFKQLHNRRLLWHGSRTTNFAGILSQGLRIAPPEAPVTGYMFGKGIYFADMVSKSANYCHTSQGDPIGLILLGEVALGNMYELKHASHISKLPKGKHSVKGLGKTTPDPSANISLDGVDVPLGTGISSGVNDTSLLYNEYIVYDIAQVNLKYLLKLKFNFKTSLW
Protocol: The assay was performed utilizing the following method:
Compounds were dissolved in DMSO an Echo550 liquid handler was utilized to make serial dilations in the desired concentration range in Optiplate-384F plates. 100% DMSO was used for the high (with protein) and low (without protein) control samples. 20 nL of compound or DMSO alone was added to individual assay plate wells.
PARP1 and PARP2 protein were expressed, purified, and diluted in assay buffer containing 50 mM Tris pH 8.0, 0.001% Triton X-100, 10 mM MgCl2, 150 mM NaCl to a final concentration of 20 nM. The PARPi-FL was then added at a final concentration of 3 nM.
The assay plate was centrifuged at 1000 rpm for 1 min and incubated for 4 h at room temperature.
The fluorescent polarization was read using an Envision plate reader using the following settings: • Excitation filter—FITC FP 480-Ex Slot 3 • Emission filter—FITC FP P-pol 535-Em Slot 4 • 2nd Emission filter—FITC FP S-pol 535-Em Slot 3 • Mirror module—FITC FP Dual Enh-Slot 1
XLFit (equation 201) is used to calculate a reported IC50 for each compound.

Compound	efflux ratio at 2 h, 10 μM (MDR1)	Papp A→B at 2 h, 10 μM (MDR1) [×10⁻⁶ cm/s]	Papp B→A at 2 h, 10 μM (MDR1) [×10⁻⁶ cm/s]	efflux ratio at 2 h, 10 μM (BCRP)	Papp A→B at 2 h, 10 μM (BCRP) [×10⁻⁶ cm/s]	Papp B→A at 2 h, 10 μM (BCRP) [×10⁻⁶ cm/s]	EC50 [1] [nM]	EC50 (DLD-1 BRCA2(−/−)) [nM]	Kp uu [2]	IC50 (PARP1) [nM]
Cc1nc2ccc(CN3CCN(c4ccc(C(=O)NC5CC5)nc4F)CC3)c(F)c2[nH]c1=O [Example 1, N-cyclopropyl-6-fluoro-5-{4-[(5-fluoro-2-methyl-3-oxo-4H-quinoxalin-6-yl)methyl]piperazin-1-yl}pyridine-2-carboxamide]	1.82	16.5	30	0.94	25.7	24.1	2.4	3.7	0.37	4.5
Cc1nc2ccc(CN3CCN(c4ccc(C(=O)NCC(F)F)nc4F)CC3)c(F)c2[nH]c1=O [Example 19]	0.87	20.9	18.2	0.73	28	20.2	2.2	3.9		18
Cc1nc2ccc(CN3CCN(c4ccc(C(=O)N[C@@H]5CC5(F)F)nc4F)CC3)c(F)c2[nH]c1=O (single isomer, unassigned) [Example 21]		16.6	16.4		21.4	19.4	2	3.1		
